Results: US10844023B2 (Washington University, priority 2017, dated 2020)
pEC50: −log10 of the molar value. Where two headings read alike, the source gives them in different places. Values belong to the compound of their own block, whether it stands above or below them.

Columns and labels:
Mfn2 null MEFs = test: Mitochondrial elongation (aspect ratio) fusogenicity assay; type: cell-based, mouse; details: for Fusogenic activity: mitochondrial elongation / fusion
MFN2 HR2 = molecular target: T1, MFN2 HR2 (Homo sapiens, UniProt O95140); test: HR1 peptide-HR2 target binding assay; details: FITC minipeptide 374-384 at HR2 binding site
T1 construct: host or cells: synthetic peptide (note in the listing); immobilised on Ni-NTA resin
T1 sequence (O95140 with tags, fused parts or gaps limits assumed): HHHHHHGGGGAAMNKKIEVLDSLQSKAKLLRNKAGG
Source text: The Mfn-derived fusion-promoting and -inhibiting mini-peptides (simulated to obtain the chemical Mfn agonists in TABLE 1 and TABLE 2) were modified from amino acid heptad repeats (HR) in the HR1 domain and predicted to interact with their counterparts in the carboxyl terminus HR2 domain within the Mfn stalk region (see e.g., FIG. 1, top panel). A high-throughput binding assay was designed whereby the target HR2 peptide sequences, modified to include amino terminal 6×His tags and Gly linkers, were bonded to Ni-chelate resin (20 μg/ml) and used as immobilized “receptor” for amino-FITC-tagged Mfn2 374-384 (agonist ligand) in which the Ser analogous to Ser378 was replaced with Asp to confer the negative charge essential for activity. For antagonist studies the ligand was amino-FITC-tagged Mfn2 406-418. The FITC peptide ligands are suspended at 1 mM in 30% DMSO, 70% water (to minimize spontaneous aggregation) and diluted into binding buffer (de-ionized water) to a final concentration of 25 μM in the presence or absence of competing compound. Dose-dependent loss of resin-bound FITC signal (485 nm excitation/538 nm emission) measured in a 96 well spectrofluorometer represents binding of compound to its HR2 target (see e.g., FIG. 10, FIG. 11). Either the ligand peptide or the receptor peptide can be modified to represent mutations, variations, or posttranslational modifications of Mfn2. […]
Target HR2 peptide sequence modified to include amino terminal 6×His tags and Gly linkers, were bonded to Ni-NTA resin (4.4 μg/ml) (Quiagen) and used as immobilized “receptor” for amino-FITC-tagged Mfn2 374-384 (ligand) in which the Ser analogous to Ser378 was replaced with Asp to confer the negative charge essential for activity. […] Resin-bound FITC signal (485 nm excitation/538 nm emission) measured in a 96 well spectrofluorometer (Spectramax M5e, Molecular Devices) represented binding to HR2 target. Competition binding isotherms were plotted and IC50 values calculated using Prism 7 (GraphPad).

[1] = system: MFN2 Asp^378 and Ala^378 mutants; test: Mitochondrial fusion with MFN2 Ser378 mutants (Asp378, Ala378); type: cell-based, human
MFN2 T105M = test: Reversal of mitochondrial dysmorphology provoked by MFN2 T105M in MEFs; type: cell-based, mouse
[2] = system: cultured neurons expressing MFN2 T105M; test: Cultured mouse neurons expressing CMT2A mutant MFN2; type: cell-based
Method: Neonatal mouse hippocampal neurons were cultured from brains of one day old Mfn2 T105M or non-transgenic sibling mouse pups as described. After 10 days of differentiating culture neurons were infected with Adeno-Cre to induce Mfn2 T105M expression or Adeno-βgal as a control (50 MOI). After an additional 72 hours mitofusin agonists or DMSO vehicle were added. For static confocal imaging neuronal mitochondria were labeled with adenoviral-expressed mitoGFP plus TMRE. Autophagy was measured by LC3 aggregation in neurons infected with adenoviral LC3-GFP. For time-lapse studies of mitochondrial trafficking bi-cistronic Adeno-Cre/GFP marked Cre expression and mitochondria were labeled with adeno-mitoDsRed. Confocal live cell images were acquired with a time-lapse of 1 frame every 90 seconds for 1 hour.

[3] = system: MFN2 T105M sciatic nerves; test: Sciatic nerve axonal mitochondrial motility, agonist applied to the excised nerve; parameters: species or system mouse
Method: Sciatic nerves of 12-18 week old male or female MFN2 T105M mice were removed en bloc with the lumbar spine and axotomy at the tibial nerve, stained with TMEM ([…]) for 30 minutes in prewarmed Neurobasal Medium without phenol red (Thermo Fisher Scientific) at room temperature, washed, and maintained on the stage of a Nikon A1Rsi Confocal Microscope at 37 degrees C. for time-lapse confocal studies. Images were acquired with a 40×oil immersion objective at 1 frame every 5 or 10 seconds for sequential 10 minute periods. Mitofusin agonist chimera B-A/I was added after the first 10 minute imaging period (final concentrations of […]) and nerve axons imaged for another 40 minutes. Because there was no difference in mitochondrial trafficking or response to mitofusin agonist between male and female mice, the data were combined.

[4] = system: ALS and HD patient-derived fibroblasts; test: Mitochondrial health assays in ALS and HD patient-derived fibroblasts; type: cell-based, human
Method: HD patient-derived fibroblast cell lines (GM04693 from patient and GM05539 from patient) were purchased from Invitrogen. ALS patient-derived fibroblasts (ALS 1: ND29509 from patient having SOD1 mutation; ALS 2: ND30327 having FUS1 mutation) and fibroblasts of control healthy individuals were purchased from Coriell Institute, USA. All fibroblast cultures were maintained in MEM supplemented with 15% (v/v) FBS and 1% (v/v) penicillin/streptomycin at 37° C. in 5% CO2-95% air. Galactose media was used, to increase mitochondria-dependent metabolism oxidative phosphorylation. Human fibroblasts were switched to grow for 48 h in DMEM deprived of glucose and containing galactose (4.5 g/I), 1% FBS, 5 mM sodium pyruvate and 2 mM L-glutamine for the studies.
Cells cultured in 8-well chamber slides were washed with cold PBS, fixed in 4% formaldehyde, and permeabilized with 0.1% Triton X-100. After incubation with 2% normal goat serum (to block nonspecific staining), fixed cells were incubated overnight at 4° C. with TOM20 antibody (1:500) (Santa Cruz, USA). Cells were washed with PBS and incubated for 60 minutes with FITC-conjugated goat anti-rabbit IgG (1:500 dilution). The cells were then washed gently with PBS and counterstained with Hoechst 33342 (1:10,000 dilution, Molecular Probes) to visualize nuclei. The coverslips were mounted with Slow-fade anti-fade reagent (Invitrogen), and images were acquired at 60×using an All-in-One Fluorescence Microscope BZ-X700 (Keyence).
Cells were incubated with tetra-methyl-rhodamine methyl ester (TMRM, 25 nM, Invitrogen) in HBSS (Hank's balanced salt solution) for 30 min at 37° C., per the manufacture's protocol, and the fluorescence was analyzed to measure mitochondrial membrane potential. All data were normalized with respect to the fluorescence intensity of control cells. To determine mitochondrial ROS production, cells were treated with 5 μM MitoSOX™ Red, a mitochondrial superoxide indicator (Invitrogen) for 20 min at 37° C., according to the manufacturer's protocol, and fluorescence was analyzed using SpectraMax M2e (Molecular devices).

CMT2A MFN2 T105M mice = test: In vivo sciatic nerve mitochondrial motility in CMT2A mice; parameters: species or system mouse; details: IM, 2 mg/kg, assessed 4 hours later
Method: Sciatic nerve mitochondrial motility was measured 4 hours later. Results described in FIG. 58 are for 2 CMT2A mice per group.

[5] = Solubility in 50 mM phosphate buffer (pH 7.4); type: physicochemical
[6] = Plasma protein binding (equilibrium dialysis); type: in vitro ADME
Method: (§1) Plasma protein binding was measured using equilibrium dialysis; % bound=(1-[free compound in dialysate]/[total compound in retentate])×100. Plasma stability of […] compound in clarified freeze-thawed plasma was assessed by LC-MS/MS of supernatants after protein precipitation; 120 min data are reported for studies including 0, 10, 30, 60, and 120 min. Microsome stability of […] compound in liver microsomes (0.5 mg/ml) after 0, 5, 10, 20, 30, 60 min. incubation was assessed by LC/MS/MS of reaction extracts.

Plasma stability = type: in vitro ADME
Method: as §1

[7] = Liver microsome stability; type: in vitro ADME
Method: as §1

[8] = Plasma protein binding, mouse; type: in vitro ADME; details: read-out: plasma protein bound in the mouse (converted)
Method: as §1

[9] = Parallel artificial membrane permeability assay (PAMPA); type: in vitro ADME
P-gp/MDR1 = P-gp/MDR1 (Homo sapiens, UniProt P08183); test: P-gp/MDR1 transport; type: in vitro ADME
P-gp/MDR1, sequence (P08183 whole entry): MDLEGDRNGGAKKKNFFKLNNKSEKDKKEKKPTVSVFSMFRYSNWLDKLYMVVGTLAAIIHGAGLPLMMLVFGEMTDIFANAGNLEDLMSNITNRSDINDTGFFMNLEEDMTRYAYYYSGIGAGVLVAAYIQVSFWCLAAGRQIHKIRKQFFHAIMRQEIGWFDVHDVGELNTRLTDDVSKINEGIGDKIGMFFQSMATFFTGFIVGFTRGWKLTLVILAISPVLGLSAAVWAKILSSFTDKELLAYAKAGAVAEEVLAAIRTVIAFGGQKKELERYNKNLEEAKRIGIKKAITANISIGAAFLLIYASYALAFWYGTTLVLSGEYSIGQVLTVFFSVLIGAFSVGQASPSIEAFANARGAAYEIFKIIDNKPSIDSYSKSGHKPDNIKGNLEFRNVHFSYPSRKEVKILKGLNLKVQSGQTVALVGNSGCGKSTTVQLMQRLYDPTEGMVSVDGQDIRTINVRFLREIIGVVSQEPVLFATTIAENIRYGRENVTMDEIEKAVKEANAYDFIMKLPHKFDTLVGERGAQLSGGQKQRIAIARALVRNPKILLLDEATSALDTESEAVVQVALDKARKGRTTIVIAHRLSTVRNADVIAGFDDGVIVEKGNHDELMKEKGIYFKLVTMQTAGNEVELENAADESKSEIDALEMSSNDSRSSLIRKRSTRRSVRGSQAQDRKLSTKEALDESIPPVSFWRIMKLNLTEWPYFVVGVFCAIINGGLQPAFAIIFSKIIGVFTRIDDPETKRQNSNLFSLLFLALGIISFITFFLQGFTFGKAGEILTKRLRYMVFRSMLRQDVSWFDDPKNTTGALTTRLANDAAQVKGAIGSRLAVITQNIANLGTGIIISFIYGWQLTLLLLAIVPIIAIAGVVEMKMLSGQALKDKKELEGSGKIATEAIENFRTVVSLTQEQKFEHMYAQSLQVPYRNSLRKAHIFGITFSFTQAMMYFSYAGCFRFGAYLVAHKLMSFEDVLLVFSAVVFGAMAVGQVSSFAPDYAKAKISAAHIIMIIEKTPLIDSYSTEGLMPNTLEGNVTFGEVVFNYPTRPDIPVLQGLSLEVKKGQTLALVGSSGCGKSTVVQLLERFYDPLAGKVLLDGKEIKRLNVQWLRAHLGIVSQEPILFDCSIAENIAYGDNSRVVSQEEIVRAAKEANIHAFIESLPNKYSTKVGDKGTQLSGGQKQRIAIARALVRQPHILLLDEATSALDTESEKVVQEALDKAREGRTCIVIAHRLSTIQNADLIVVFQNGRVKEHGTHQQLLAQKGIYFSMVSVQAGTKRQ

[10] = In vivo pharmacokinetics in mice; details: mouse, plasma, intramuscular, 1 mg/kg
Method: (A) Three mice each were administered 1 mg/kg agonist IV, IP, or IM. Graphs are mean plasma concentration for each administration route. (B) Results for individual mice were administered 1 mg/kg indicated agonist IM.

[11] = ALS and HD patient-derived fibroblasts

Compound: CC1CCCCC1NC(=O)NCCSc1nnc(C2CC2)n1-c1ccccc1 (racemic) [B-A/I, 1-(2-((5-cyclopropyl-4-phenyl-4H-1,2,4-triazol-3-yl)thio)ethyl)-3-(2-methylcyclohexyl)urea]
Fusogenic activity (Mfn2 null MEFs): potently stimulated mitochondrial fusion
Binding to / competition at HR2 target (MFN2 HR2): competed for minipeptide binding at the MFN2 HR2 interaction site
Selectivity of fusogenic effect for phosphomimic Asp378 vs nonphosphorylatable Ala378 MFN2 [1]: non-selective
Reversal of mitochondrial dysmorphology provoked by MFN2 T105M (MFN2 T105M): as effective as the combination of Cpds A+B
Mitochondrial motility in cultured neurons expressing MFN2 T105M [2]: restored mitochondrial motility
Mitochondrial motility in MFN2 T105M sciatic nerves [3]: restored mitochondrial motility to within normal levels
Mitochondrial ROS levels [4, 11]: reduces mitochondrial ROS levels
Mitochondrial membrane potential [4, 11]: improves mitochondrial membrane potential
Mitochondrial structural defects [4, 11]: enhances mitochondrial structural defects
Effect on fibroblasts from control subjects ([4]; control fibroblasts): has no effect on fibroblasts from control subjects

Compound: O=C(NCCCc1nnc(C2CC2)n1-c1ccccc1)NC1CCOCC1 [Regeneurin-C/O, 1-(3-(5-cyclopropyl-4-phenyl-4H-1,2,4-triazol-3-yl)propyl)-3-(tetrahydro-2H-pyran-4-yl)urea]
Sciatic nerve axon mitochondrial motility in vivo (CMT2A MFN2 T105M mice): reverses the characteristic mitochondrial immobility in sciatic nerve axons

Solubility [5]: soluble
Plasma protein binding [6]: highly protein bound
Plasma stability (Plasma stability): stable in plasma
Liver microsome stability [7]: rapidly degraded by liver microsomes
Compound: CC1CCCCC1NC(=O)NCCSc1nnc(C2CC2)n1-c1ccccc1 (centres unmarked) [Regeneurin-S, 1-(2-((5-cyclopropyl-4-phenyl-4H-1,2,4-triazol-3-yl)thio)ethyl)-3-(2-methylcyclohexyl)urea]
Mitochondrial motility in MFN2 T105M sciatic nerves [3]: rapidly correct mitochondrial dysmotility

Plasma protein binding [6]: low plasma protein binding
fraction unbound [8]: 0.888
Liver microsome stability [7]: stability in the liver microsome assay
P-gp mediated transport (P-gp/MDR1): no reverse transport by P-gp
concentration at 2 h ([10]; 1 mg/kg IM, read-out: total plasma drug concentration 2 hours after IM administration): 7.5 ng/mL
concentration at 2 h ([10]; IM, from total concentration and protein binding, read-out: free drug concentration 2 hours after IM administration): ~6.66 ng/mL
concentration at 2 h ([10]; IM, read-out: free drug concentration 2 hours after IM administration): ~20 nM
Compound: CCn1c(CCCNC(=O)NC2CCOCC2)nnc1C1CC1 [Mitolityn-4, 1-(3-(5-cyclopropyl-4-ethyl-4H-1,2,4-triazol-3-yl)propyl)-3-(tetrahydro-2H-pyran-4-yl)urea]
pEC50 (Mfn2 null MEFs; Mus musculus, increase in mitochondrial aspect ratio): ~8.52
Fusogenic activity (Mfn2 null MEFs): highest potency
Passive diffusion across lipid-infused artificial membrane (PAMPA, words) [9]: no passive diffusion across lipid membrane
